For experiment [1], the system named is rat snake TRPA1 (rsTRPA1). As to conditions: ref Banzawa et al., 2014; McNamara et al., 2007; cited from earlier work.
Experiment [2] relates to cultured rat trigeminal neurons. Nature of the experiment: CGRP release ELISA from cultured trigeminal neurons. It counts as cell-based. To be noted: WaTx 10 μM. For orientation: ELISA stands for enzyme-linked immunosorbent assay.
The test system of experiment [3] is mouse hindpaw. To be noted: for Acute nocifensive behavior in capsaicin-ablated animals: intrathecally capsaicin ablated mice.
Experiment [4] deals with T1, hTRPA1 (Homo sapiens, UniProt O75762). It counts as cell-based. As to conditions: human TRPA1-transfected HEK cells, whole-cell; mean ± SEM; p < 0.05 unpaired two-tailed t-test.
T1 sequence (O75762 whole entry): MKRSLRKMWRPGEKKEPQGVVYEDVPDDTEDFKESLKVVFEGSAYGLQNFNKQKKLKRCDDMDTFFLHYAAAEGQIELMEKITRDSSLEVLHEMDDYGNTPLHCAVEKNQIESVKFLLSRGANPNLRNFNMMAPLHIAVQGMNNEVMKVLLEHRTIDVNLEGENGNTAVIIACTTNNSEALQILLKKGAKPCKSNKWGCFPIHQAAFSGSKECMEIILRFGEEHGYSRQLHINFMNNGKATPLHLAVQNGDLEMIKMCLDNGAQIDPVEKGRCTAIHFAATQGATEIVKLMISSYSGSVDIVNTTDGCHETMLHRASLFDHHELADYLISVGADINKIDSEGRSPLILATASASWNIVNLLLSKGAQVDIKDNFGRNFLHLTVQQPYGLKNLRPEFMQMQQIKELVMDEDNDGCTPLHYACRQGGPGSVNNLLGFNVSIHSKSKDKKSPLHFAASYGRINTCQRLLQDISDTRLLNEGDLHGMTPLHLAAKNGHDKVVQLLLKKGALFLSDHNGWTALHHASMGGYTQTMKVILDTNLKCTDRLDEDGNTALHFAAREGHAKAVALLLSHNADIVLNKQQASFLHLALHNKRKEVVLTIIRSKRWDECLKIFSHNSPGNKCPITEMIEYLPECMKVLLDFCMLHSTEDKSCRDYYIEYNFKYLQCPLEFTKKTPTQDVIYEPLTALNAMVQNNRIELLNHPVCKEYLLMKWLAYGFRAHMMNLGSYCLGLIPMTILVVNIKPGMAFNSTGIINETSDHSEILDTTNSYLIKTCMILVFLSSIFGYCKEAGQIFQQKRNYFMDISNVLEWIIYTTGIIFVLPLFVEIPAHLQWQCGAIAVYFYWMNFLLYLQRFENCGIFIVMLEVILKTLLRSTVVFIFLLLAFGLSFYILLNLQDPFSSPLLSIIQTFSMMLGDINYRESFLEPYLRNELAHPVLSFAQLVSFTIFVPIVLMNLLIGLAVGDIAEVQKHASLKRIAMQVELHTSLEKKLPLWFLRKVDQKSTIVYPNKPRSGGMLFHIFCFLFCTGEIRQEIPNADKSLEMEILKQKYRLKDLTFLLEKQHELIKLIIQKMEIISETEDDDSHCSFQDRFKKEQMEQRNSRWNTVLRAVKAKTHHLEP
The target of experiment [5] is T1, hTRPA1. Nature of the experiment: Single-channel cell-attached and excised-patch recordings of TRPA1 in HEK cells. It counts as cell-based. To be noted: for Effect on divalent over monovalent cation selectivity: excised patches, AITC 50 μM, n = 3–7 patches/condition; for Effect on divalent over monovalent cation selectivity / Duration of evoked channel openings / Average latency to first channel opening: WaTx 100 nM; for Duration of evoked channel openings / Average latency to first channel opening: inside-out patches, AITC 10 μM; for Duration of evoked channel openings: Vh = −40 mV, n = 6–8 patches/treatment; for Average latency to first channel opening: n = 13–14 patches/treatment.

The subject of experiment [6] is mouse hindpaw. Nature of the experiment: Neurogenic inflammation: paw edema and Evan's Blue Dye extravasation. It counts as in vivo. To be noted: intrathecally capsaicin ablated mice; AITC 0.75% v/v.
For experiment [7], the system named is mouse hindpaw. Nature of the experiment: Thermal. To be noted: for Mechanical hypersensitivity in capsaicin-ablated animals: intrathecally capsaicin ablated mice, n = 6–8 mice/treatment; for Hypersensitivity to thermal and mechanical stimuli: wild-type mice, intraplantar injection. It counts as in vivo.
The target in experiment [8] is T1, hTRPA1. The experiment is classed as binding. As to conditions: wild-type hTRPA1-transfected HEK293 membranes.
The test system of experiment [9] is rsTRPA1. The experiment is classed as binding, Texas rat snake (Elaphe obsoleta lindheimeri). To be noted: gain-of-function mutant A627P.
Experiment [10] relates to trigeminal sensory neurons. Nature of the experiment: Ca2+ imaging of cultured mouse trigeminal sensory neurons. The experiment is classed as cell-based.
In experiment [11] the test system is human TRPA1. The experiment is classed as cell-based. As to conditions: WaTx 1 μM, whole-cell, n = 3–9 cells/construct.
For experiment [12], the system named is rat snake TRPA1 (rsTRPA1). Nature of the experiment: Whole-cell patch-clamp recordings of rat snake TRPA1 in transfected HEK cells. It counts as cell-based, Texas rat snake (Elaphe obsoleta lindheimeri). Background: In patch-clamp work, channel activity is measured electrically.
For experiment [13], the target named is human TRPA1, full-length wild type (human, UniProt O75762 1-1119). Nature of the experiment: BLI.
human TRPA1, full-length wild type, sequence (O75762 whole entry): as above

Bridge positions count the residues as written; N and C are the ends. Ends that are not written are not given here. * marks the point of attachment. Biotin = O=C1N[C@H]2[C@H](CS[C@H]2CCCCC(=O)*)N1 Some results are limits rather than exact numbers.

As a reminder, the Kd is the free concentration of one partner at which half of the binding sites on the other are occupied at equilibrium, for simple one-to-one binding. A low value points to tighter binding. Broadly, the koff is a measure of how fast the partners let go of each other. A higher koff goes with fast dissociation.

As to `CCC(=N\O)/C(C)=C/c1ccc(F)cc1` [A 967079], the “Inhibitor effectiveness against rsTRPA1” value in experiment [1] is listed as “ineffective”.
`C=CCN=C=S` [AITC, allyl isothiocyanate, reference compound]: the “CGRP release, physiological extracellular Ca2+” value in [2] (2mM extracellular Ca2+, AITC 100 μM, 5 min at RT) is “promoted robust CGRP release”. In [3], the “Acute nocifensive behavior in capsaicin-ablated animals” value is “not acute nocifensive behavior”. Also, the “τoff (reversal of membrane currents upon washout)” value in [4] is 27 ± 5 s. Also, in experiment [5], the “Effect on divalent over monovalent cation selectivity” value is recorded as “small but significant increase in divalent cation selectivity”, the “Duration of evoked channel openings” value is at most 5 ms and the “Average latency to first channel opening” value is on record as “dramatically shortened”. The “Paw swelling in capsaicin-ablated animals” value in experiment [6] is recorded as “produced swelling”. Besides, in experiment [7], the “Mechanical hypersensitivity in capsaicin-ablated animals” value was “developed mechanical hypersensitivity (albeit with a delayed onset)”; the “Hypersensitivity to thermal and mechanical stimuli” value is “substantial and long-lasting hypersensitivity”.
As for `CC(C)c1ccc(NC(=O)Cn2cnc3c2c(=O)n(C)c(=O)n3C)cc1` [HC 030031], the “Inhibitor effectiveness against rsTRPA1” value in experiment [1] is “effective”.
For “WaTx (Biotin-GSGSASPQQAKYCYEQCNVNKVPFDQCYQMCSPLERS; disulfide 13-31, 17-27; not fully specified)”, in [8], the “Binding of hTRPA1 membranes” value is on record as “Robust binding”. In experiment [2] (20mM extracellular Ca2+ (10-fold)), the “CGRP release, raised extracellular Ca2+” value was “able to promote CGRP release”. For the same molecule, in experiment [9], the “Binding of rsTRPA1 A627P membranes” value was “did display binding”. Further, in [10] (WaTx 5 μM, TRPA1−/− mouse trigeminal neuron cultures), the “Effect on neurons from TRPA1-deficient animals” value is recorded as “no effect”. The “Selectivity of neuron excitation, wild-type mice” value in experiment [10] (saturating dose 5μM WaTx, AITC 50μM) is on record as “excited only the cohort sensitive to a selective dose of AITC”. In addition, in experiment [3] (20 μL intraplantar to hindpaw, wild-type mice, scored 20 min), the “Nocifensive (pain-related) behavior” value is “vigorous, dose-dependent nocifensive (pain-related) behavior”. Also, the “Nocifensive and c-Fos responses in TRPA1-deficient mice” value in experiment [3] (TRPA1−/− mice) was “not observed”. Moreover, the “c-Fos immunoreactivity in superficial laminae of spinal cord dorsal horn” value in [3] (after hindpaw injection, wild-type mice, n = 22–39 sections/group) is on record as “induction of c-Fos immunoreactivity”. Moreover, the “Acute nocifensive behavior in capsaicin-ablated animals” value in experiment [3] is “lacked acute nocifensive behavior”. The “τoff (reversal of membrane currents upon washout)” value in experiment [4] was 4.6 ± 1.2 s. In addition, the “Toxin sensitivity of hTRPA1 mutants P622A, M634L, T646P” value in [11] is “abrogated toxin sensitivity”. For the same molecule, the “Activation of channels in cell-attached mode” value in experiment [5] (cell-attached HEK cell patches, n = 12) is reported as “WaTx-evoked responses in the on-cell patch configuration”. For the same molecule, in experiment [5] (excised outside-out / inside-out patches, bath application), the “Activation of channels in excised patches” value is listed as “activity was observed in either configuration”. For the same molecule, in experiment [5], the “Effect on divalent over monovalent cation selectivity” value is given as “largely abolished”; the “Duration of evoked channel openings” value is at most 20 ms; the “Average latency to first channel opening” value is given as “indistinguishable from that of basal, spontaneous events”. In experiment [7], the “Mechanical hypersensitivity in capsaicin-ablated animals” value was “failed to exhibit any signs of mechanical hypersensitivity”; the “Hypersensitivity to thermal and mechanical stimuli” value was “substantial and long-lasting hypersensitivity”. The “Toxin sensitivity of rsTRPA1 A627P” value in experiment [12] (WaTx 5 μM, whole-cell) was “sufficient to confer toxin sensitivity”. The “Sensitivity of rat snake TRPA1 to toxin” value in experiment [12] (whole-cell patch clamp, n = 4–12 HEK cells/condition) is on record as “insensitive”.

B1: Biotin-GSGS-WaTx (N-terminal biotinylated Wasabi Receptor Toxin) (peptide)
peptide: GSGSASPQQAKYCYEQCNVNKVPFDQCYQMCSPLERS
modifications: biotin on the N-terminus; directed disulfide bonds C9-C27 and C13-C23 (WaTx numbering)
B1: in experiment [13], the Kd is 0.33 pM and the koff worked out at 7.13e-06 s⁻¹.

Values taken from article PMC6731142 (Cell, 2019).
